Data on three substances can be found in patent publication US9549945B2, “Use of alkylated semi-synthetic glycosaminoglycosan ethers for the treatment of inflammation” (University of Utah Research Foundation, priority 2008, dated 2017).

“Also recorded” adds a separate entry of the source.

The test system of series [1] is IIa. As to the kind of experiment: Anti-IIa anticoagulant activity. The series is classed as biochemical.
Series [2] concerns the target T1, Hageman factor (Factor XII) (Homo sapiens, UniProt P00748).
T1 construct: from tissue; host or cells: pooled human plasma
T1 sequence (P00748 20-615): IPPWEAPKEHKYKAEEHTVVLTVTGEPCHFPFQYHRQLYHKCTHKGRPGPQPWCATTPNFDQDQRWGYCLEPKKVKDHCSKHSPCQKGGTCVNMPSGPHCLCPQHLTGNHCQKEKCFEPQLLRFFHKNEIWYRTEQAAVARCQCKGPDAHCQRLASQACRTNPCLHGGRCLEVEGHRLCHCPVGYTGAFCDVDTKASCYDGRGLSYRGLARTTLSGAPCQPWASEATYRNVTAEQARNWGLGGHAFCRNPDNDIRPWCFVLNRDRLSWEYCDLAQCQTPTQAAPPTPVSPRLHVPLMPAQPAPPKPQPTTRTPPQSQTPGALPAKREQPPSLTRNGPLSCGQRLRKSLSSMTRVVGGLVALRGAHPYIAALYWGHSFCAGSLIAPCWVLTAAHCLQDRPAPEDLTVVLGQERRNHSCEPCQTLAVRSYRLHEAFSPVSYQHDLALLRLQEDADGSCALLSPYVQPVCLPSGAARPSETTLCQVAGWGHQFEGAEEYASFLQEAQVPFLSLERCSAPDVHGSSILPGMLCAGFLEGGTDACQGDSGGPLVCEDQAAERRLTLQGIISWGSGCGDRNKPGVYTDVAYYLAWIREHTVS
Description: Hageman factor (Factor XII) activation in pooled human plasma, amidolytic activity. The class given is biochemical. As to conditions: FIG. 19. As to the method:
Nat Biotech 26:669-675, 2008). […] Amidolytic activity specific for active kallikrein was determined by adding D-Pro-Phe-Arg-p-NA and following change in absorbance at […].

Series [3] has as its system Xa. As to the kind of experiment: Anti-Xa anticoagulant activity. The series is classed as biochemical.
Series [4] deals with LL-37 induced skin inflammation. Description: SAGE topical treatment in LL-37 rosacea model. The class given is in vivo, Balb/c mice. The note with it: topical administration. As to the method: Balb/c mice were shaved […] area of skin on the back. We then began topical application of a hyaluronan-cased emollient containing 5% SAGEs (active emollient) or hyaluronic acid based emollient alone to this area of skin every 12 hours. Twenty-four hours later, we injected 40 μL of vehicle (PBS) or cationic peptide (at 320 μM concentration) subcutaneously into the shaved skin in the manner described previously. Injections and topical emollient applications were repeated every 12 h thereafter. Forty-eight hours after the initial injection (four injections in total), animals were lightly anesthetized as described previously. […] The intensity of erythema was assessed as a redness score (from 1 to 5), and the area of erythema was measured with calipers. […]
For each mouse, tissue biopsies (6 mm diameter hole punch) were taken immediately, weighted, frozen and stored at −80° C. Tissue MPO activity was measured using a method by Suzuki et. al. (Suzuki K, Ota H, Sasagawa S, Sakatani T, Fujikura T. Assay method for myeloperoxidase in human polymorphonuclear leukocytes. Anal Biochem 132:345-352, 1983) as modified by Young et. al. (Young J M, Spires D A, Bedord C J, Wagner B, Ballaron S J, De oung LM. The mouse ear inflammatory response to topical arachidonic acid. J Invest Dermatol 82:367-371, 1984). […] MPO enzyme activity was assessed at an absorbance wavelength of 630 nm. […]

The test system of series [5] is ARPE-19 cells. Description: AGE-BSA induced apoptosis of ARPE-19 cells (Live/Dead stain). The note with it: AGE-BSA 25 μM, 40 h; test substance 200 μM. The class given is cell-based, human. On the procedure:
The ability of AGE products to induce RPE cell apoptosis was investigated. ARPE-19 cells were grown to confluence on round coverslips, then transferred to new dishes for exposure to 25 μM AGE-BSA for 40 h. Apoptosis was then assayed with Molecular Probes Fixable Live/Dead Cell Stain Kit (L11101, Eugene, Oreg.). […] Nuclei are stained […] with DAPI; dead cells are stained green. A. BSA control. Some dead cells are noted at the edges of the coverslip, but live and dead cells are interspersed at the interface. B. AGE-BSA (25 μM). Significant cell death is seen around the edges, and the boundary between live and dead cells is stark. C. AGE-BSA (25 μM)+ODSH (200 μM).

For series [6], the system named is RAGE expression in ARPE-19 cells. As to the kind of experiment: AGE (CML-BSA)-induced RAGE expression in ARPE-19 cells (immunoblot). The class given is cell-based, human. The note with it: ARPE-19 cells on CML-BSA coated plates. As to the method:
Experiments studying the biology of RAGE in cultured RPE cells using the ARPE-19 human RPE cell line were conducted. As shown in immunoblots (FIG. 17), ARPE-19 cells express at least 4 isoforms of RAGE ranging from 45-50 kDa in cell lysates, and secrete these isoforms into conditioned media. […] Because RAGE ligation activates the transcription factor NF-κB, enhanced expression of RAGE greatly promotes pro-inflammatory signaling. […] This would prevent “feed-forward” pro-inflammatory increases in RAGE expression itself by RAGE ligation.
Background: A western blot detects proteins with antibodies after separation by electrophoresis.

Take heparin: the anti-IIa anticoagulant activity in series [1] is given as 150 U/mg. Also, the “concentration that activates Factor XII” value in series [2] is 400 ng/mL. The substance also came in with an anti-Xa anticoagulant activity in series [3] of 150 U/mg.
Turning to “Hyaluronic acid [HA, reference compound]”, in series [4], the “MPO activities in LL-37 rosacea model, SAGE vs. HA” value is listed as “did not alleviate” and the “inflammation in LL-37 rosacea model, SAGE vs. HA” value is “did not alleviate inflammation”.
For the substance 2-O, 3-O desulfated heparin [ODSH], in series [5], the AGE-induced apoptosis result is “some protection but significant apoptosis still occurs; also recorded: reduced”. Also, the “up-regulation of RAGE expression by CML-BSA” value in series [6] is on record as “prevented up-regulation of RAGE expression”.
